Values joined by “and” are separate entries in the source; they are usually repeats but may differ in a detail not shown here. Equal values may be shown once.
Columns and labels:
[1] = system: H-1299 cells; assay: MTT cytotoxicity assay, H-1299; format: cell-based, human; settings: Homo sapiens
In short: (§1)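 Cells seeded at 1.0 × 10^5/well, grown 24 h, then exposed 48 h to compounds at 0.1–20 μM (≤1% DMSO); U118-MG in DMEM, H1299 in RPMI 1640, both with 10% FBS, 37 °C. MTT 2 h, formazan in DMSO read at 570 nm; IC50 relative to untreated cells (100%).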

[2] = system: U-118 MG cells; assay: MTT cytotoxicity assay, U-118 MG; format: cell-based, human; settings: 48 h
In short: as §1

[3] = system: HF-P4 cells; assay: MTT cytotoxicity assay, HF-P4; format: cell-based, human; settings: 48 h; for Cell viability %: repeats
In short: (§2)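 Cells seeded at 1.0 × 10^5 per well, grown 24 h, then exposed 48 h to compounds at 0.1–20 μM (DMSO ≤1%). MTT added for 2 h, formazan dissolved in DMSO, absorbance read at 570 nm. IC50 calculated relative to untreated cells (100%).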

[4] = MTT cytotoxicity assay, HF-P4; format: cell-based, human; settings: human, HF-P4 normal human dermal fibroblasts, repeats, read-out: Cell viability %
In short: as §2

- melting point: 321 to 322 °C
SMILES: COc1cccc(/C=N/NC(=O)c2ccc(-c3cc4c(cc(-c5ccc(C(=O)N/N=C/c6cccc(OC)c6O)cc5)n4-c4ccc(C)cc4)n3-c3ccc(C)cc3)cc2)c1O [Compound 5]
- viability at 0.1 µM ([1]; NCI-H1299, 48 h, H-1299, 100 nM, repeats, read-out: Cell viability %): 113%
- viability at 0.5 µM ([1]; NCI-H1299, 48 h, H-1299, 500 nM, repeats, read-out: Cell viability %): 125%
- viability at 2.5 µM ([1]; NCI-H1299, 48 h, H-1299, 2.5 uM, repeats, read-out: Cell viability %): 106%
- viability at 5 µM ([1]; NCI-H1299, 48 h, H-1299, 5 uM, repeats, read-out: Cell viability %): 85.7%
- viability at 7.5 µM ([1]; NCI-H1299, 48 h, H-1299, 7.5 uM, repeats, read-out: Cell viability %): 56.6%
- viability at 10 µM ([1]; NCI-H1299, 48 h, H-1299, 10 uM, repeats, read-out: Cell viability %): 47.9%
- viability at 15 µM ([1]; NCI-H1299, 48 h, H-1299, 15 uM, repeats, read-out: Cell viability %): 46.5%
- viability at 20 µM ([1]; NCI-H1299, 48 h, H-1299, 20 uM, repeats, read-out: Cell viability %): 31.4%
- IC50 ([1]; NCI-H1299, MTT, 48 h): 10.1 µM
- viability at 0.1 µM ([2]; Homo sapiens, U-118-MG, U-118 MG, 100 nM, repeats, read-out: Cell viability %): 97.8%
- viability at 0.5 µM ([2]; Homo sapiens, U-118-MG, U-118 MG, 500 nM, repeats, read-out: Cell viability %): 91.7%
- viability at 1 µM ([2]; Homo sapiens, U-118-MG, U-118 MG, 1 uM, repeats, read-out: Cell viability %): 87.4%
- viability at 2.5 µM ([2]; Homo sapiens, U-118-MG, U-118 MG, 2.5 uM, repeats, read-out: Cell viability %): 58.2%
- viability at 5 µM ([2]; Homo sapiens, U-118-MG, U-118 MG, 5 uM, repeats, read-out: Cell viability %): 65.3%
- viability at 7.5 µM ([2]; Homo sapiens, U-118-MG, U-118 MG, 7.5 uM, repeats, read-out: Cell viability %): 47.2%
- viability at 10 µM ([2]; Homo sapiens, U-118-MG, U-118 MG, 10 uM, repeats, read-out: Cell viability %): 45.5%
- viability at 15 µM ([2]; Homo sapiens, U-118-MG, U-118 MG, 15 uM, repeats, read-out: Cell viability %): 28.9%
- viability at 20 µM ([2]; Homo sapiens, U-118-MG, U-118 MG, 20 uM, repeats, read-out: Cell viability %): 21%
- IC50 ([2]; Homo sapiens, U-118-MG, MTT): 6.85 µM
- Cell viability % ([2]; U-118 MG, 100 nM, repeats, 0.1 µM): 97.5% and 97.94%
- Cell viability % ([2]; U-118 MG, 500 nM, repeats, 0.5 µM): 83.56% and 99.84%
- Cell viability % ([2]; U-118 MG, 750 nM, repeats, 0.75 µM): 101.0241% and 97.49% and 72.15%
- Cell viability % ([2]; U-118 MG, 1 uM, repeats): 91.36% and 94.35%
- Cell viability % ([2]; U-118 MG, 2.5 uM, repeats): 62.67% and 72.48%
- Cell viability % ([2]; U-118 MG, 5 uM, repeats): 61.9341% and 54.55%
- Cell viability % ([2]; U-118 MG, 7.5 uM, repeats): 44.6% and 36.58%
- Cell viability % ([2]; U-118 MG, 10 uM, repeats): 44.7379% and 34.31%
- Cell viability % ([2]; U-118 MG, 15 uM, repeats): 30.3% and 23.7185%
- Cell viability % ([2]; U-118 MG, 20 uM, repeats): 24.2419% and 18.84%
- Cell viability % ([3]; HF-P4, 100 nM, 0.1 µM): 105.3072% and 105.0738%
- Cell viability % ([3]; HF-P4, 500 nM, 0.5 µM): 98.21% and 101.0423%
- Cell viability % ([3]; HF-P4, 750 nM, 0.75 µM): 95.79% and 102.0649%
- Cell viability % ([3]; HF-P4, 1 uM, 1 µM): 86.8% and 100.59%
- Cell viability % ([3]; HF-P4, 2.5 uM, 2.5 µM): 91.7616% and 90.46%
- Cell viability % ([3]; HF-P4, 5 uM, 5 µM): 65.3% and 72.65%
- Cell viability % ([3]; HF-P4, 7.5 uM, 7.5 µM): 71.79% and 64.35%
- Cell viability % ([3]; HF-P4, 10 uM, 10 µM): 58.3808% and 56.93%
- Cell viability % ([3]; HF-P4, 15 uM, 15 µM): 60.12% and 45.66%
- Cell viability % ([3]; HF-P4, 20 uM, 20 µM): 55.03% and 53.24%
- IC50 ([3]; Homo sapiens, MTT): > 20 µM
- viability at 48 h, 0.1 µM ([4]; HF-P4, 100 nM): 104%
- viability at 48 h, 0.5 µM ([4]; HF-P4, 500 nM): 105%
- viability at 48 h, 0.75 µM ([4]; HF-P4, 750 nM): 84.2%
- viability at 48 h, 1 µM ([4]; HF-P4, 1 uM): 105%
- viability at 48 h, 2.5 µM ([4]; HF-P4, 2.5 uM): 96.8%
- viability at 48 h, 5 µM ([4]; HF-P4, 5 uM): 84%
- viability at 48 h, 7.5 µM ([4]; HF-P4, 7.5 uM): 74.5%
- viability at 48 h, 10 µM ([4]; HF-P4, 10 uM): 76.7%
- viability at 48 h, 15 µM ([4]; HF-P4, 15 uM): 63%
- viability at 48 h, 20 µM ([4]; HF-P4, 20 uM): 52.2%

Source: paper PMC9505425, “Targeting of the Mitochondrial TET1 Protein by Pyrrolo[3,2-b]pyrrole Chelators” (International Journal of Molecular Sciences, 2022)
